As usually defined, the IC50 is the concentration that inhibits the measured activity by half.

Structures are written as SMILES. Bridge positions count the residues as written; N and C are the ends. Square brackets hold non-standard residues; d marks the D form. Peptide text beside a SMILES is read from it. * marks the point of attachment. ξ: configuration not given here. Phe(4-COOH) = N[C@@H](Cc1ccc(C(=O)O)cc1)C(=O)O; Bip = N[C@@H](Cc1ccc(-c2ccccc2)cc1)C(=O)O; Phe(3-CN) = N#Cc1cccc(C[C@H](N)C(=O)O)c1; Phe(4-CN) = N#Cc1ccc(C[C@H](N)C(=O)O)cc1; Phe(3-F) = N[C@@H](Cc1cccc(F)c1)C(=O)O; Phe(3-Me) = Cc1cccc(C[C@H](N)C(=O)O)c1; 1Nal = N[C@@H](Cc1cccc2ccccc12)C(=O)O; Val(3-OH) = CC(C)(O)[C@H](N)C(=O)O; 4Pal = N[C@@H](Cc1ccncc1)C(=O)O; Cha = N[C@@H](CC1CCCCC1)C(=O)O; Cit = NC(=O)NCCC[C@H](N)C(=O)O; Ile(3ξ) = CCC(C)[C@H](N)C(=O)O; Carboxymethyl = O=C(O)C*; NMeA = CN[C@@H](C)C(=O)O; Dab = NCC[C@H](N)C(=O)O; Dap = NC[C@H](N)C(=O)O

Among the data in patent US20240409585A1, “MACROCYCLIC IMMUNOMODULATORS” (priority 2021, published 2024) are IC50 values, retold here.

T1 sequence (Q15116 25-288): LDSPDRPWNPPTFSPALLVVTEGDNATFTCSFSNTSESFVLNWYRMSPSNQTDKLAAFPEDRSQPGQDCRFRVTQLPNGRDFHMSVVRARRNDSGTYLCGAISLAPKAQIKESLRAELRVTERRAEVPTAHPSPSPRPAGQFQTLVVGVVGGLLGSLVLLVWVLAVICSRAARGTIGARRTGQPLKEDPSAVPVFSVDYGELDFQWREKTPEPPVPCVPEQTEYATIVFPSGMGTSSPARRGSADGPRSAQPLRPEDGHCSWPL

This assay has as its target T1, PE-labeled human PD-L1-Ig binding to Jurkat cell line over-expressing human PD-1 (Jurkat-PD-1) (Homo sapiens, UniProt Q15116).
T1 construct: expressed in transfected cells; host or cells: Jurkat
The experiment in a line: Jurkat-PD-1 Cell Binding High-Content Screening Assay (CBA): Method 1. The note with it: Jurkat-hPD-1 cells, PE-labeled PD-L1-Ig 20 nM final; read-out: Jurkat HPDL1 PD1 IC50 (uM) (Method 1).
For the compound `CCNC(=O)[C@H](CCN)NC(=O)[C@@H]1CSCC(=O)N[C@@H]([C@@H](C)O)C(=O)N[C@@H](Cc2cccc(C#N)c2)C(=O)N[C@@H](CC(=O)O)C(=O)N[C@@H](Cc2cccc(C)c2)C(=O)N[C@@H](Cc2cccc(F)c2)C(=O)N[C@@H](Cc2ccc(-c3ccccc3)cc2)C(=O)N[C@@H](Cc2ccc(OCC(=O)O)cc2)C(=O)N(C)[C@@H](C)C(=O)N[C@H](CC(C)C)C(=O)N[C@@H](CCN)C(=O)N[C@@H](CC2CCCCC2)C(=O)N[C@@H](C(C)(C)O)C(=O)N[C@@H](CO)C(=O)N1` [Compound 1842] ({CH2CO}-T[Phe(3-CN)]D[Phe(3-Me)][Phe(3-F)][Bip]Y(Carboxymethyl)[NMeA][dL][Dab][Cha][Val(3-OH)]SC[Dab]-NHEt; thioether N-14), the IC50 was determined as 0.02 µM. In the case of `CC(C)C[C@@H]1NC(=O)[C@H](CCN)NC(=O)[C@@H](CC(C)C)NC(=O)[C@H](C)N(C)C(=O)[C@H](CCC(=O)O)NC(=O)[C@H](Cc2ccc(-c3ccccc3)cc2)NC(=O)[C@H](C(C)C)NC(=O)[C@H](Cc2c[nH]c3ccccc23)NC(=O)[C@H](CC(=O)O)NC(=O)[C@H](Cc2ccncc2)NC(=O)[C@H](CN)NC(=O)CSC[C@@H](C(=O)N[C@@H](C)C(N)=O)NC(=O)[C@H](CO)NC(=O)[C@H](C(C)C)NC1=O` [Compound 1576] ({CH2CO}-[Dap][4Pal]DWV[Bip]E[NMeA][dL][Dab]LVSCA-NH2; thioether N-14), the IC50 worked out at 0.11 µM. Regarding `CCC(C)[C@@H]1NC(=O)[C@H](Cc2ccc(-c3ccccc3)cc2)NC(=O)[C@H](CC(C)C)NC(=O)[C@H](Cc2c[nH]c3ccccc23)NC(=O)[C@H](CC(=O)O)NC(=O)[C@H](Cc2ccc(C(=O)O)cc2)NC(=O)[C@H](Cc2ccc(OCC(=O)O)cc2)NC(=O)CSC[C@@H](C(=O)N[C@@H](CCN)C(N)=O)NC(=O)[C@H]([C@@H](C)O)NC(=O)[C@H](C(C)C)NC(=O)[C@H](CC2CCCCC2)NC(=O)[C@H](CCN)NC(=O)[C@@H](CC(C)C)NC(=O)[C@H](C)N(C)C1=O` (stereo partly drawn) [Compound 1926] ({CH2CO}-Y(Carboxymethyl)[Phe(4-COOH)]DWL[Bip][Ile(3ξ)][NMeA][dL][Dab][Cha]VTC[Dab]-NH2; thioether N-14), the IC50 amounted to 0.01 µM.

Turning to `CC(C)C[C@@H]1NC(=O)[C@H](CCN)NC(=O)[C@@H](CC(C)C)NC(=O)[C@H](C)N(C)C(=O)[C@H](CCCNC(=N)N)NC(=O)[C@H](Cc2ccc(-c3ccccc3)cc2)NC(=O)[C@H](C(C)C)NC(=O)[C@H](Cc2c[nH]c3ccccc23)NC(=O)[C@H](CC(=O)O)NC(=O)[C@H](Cc2cnc[nH]2)NC(=O)[C@H](CC(N)=O)NC(=O)CSC[C@@H](C(=O)N[C@@H](C)C(N)=O)NC(=O)[C@H]([C@@H](C)O)NC(=O)[C@H](C(C)C)NC1=O` [Compound 1137] ({CH2CO}-NHDWV[Bip]R[NMeA][dL][Dab]LVTCA-NH2; thioether N-14), the IC50 stood at 0.27 µM.

With `CC(C)C[C@@H]1NC(=O)[C@H](CCCNC(=N)N)NC(=O)[C@@H](CC(C)C)NC(=O)[C@H](C)N(C)C(=O)[C@H](CCCNC(=N)N)NC(=O)[C@H](Cc2ccc(-c3ccccc3)cc2)NC(=O)[C@H](C(C)C)NC(=O)[C@H](Cc2cccc3ccccc23)NC(=O)[C@H](CC(=O)O)NC(=O)[C@H](Cc2ccc(O)cc2)NC(=O)[C@H](CC(N)=O)NC(=O)CSC[C@@H](C(=O)N[C@@H](C)C(N)=O)NC(=O)[C@H]([C@@H](C)O)NC(=O)[C@H](C(C)C)NC1=O` [Compound 1126] ({CH2CO}-NYD[1Nal]V[Bip]R[NMeA][dL]RLVTCA-NH2; thioether N-14), the IC50 worked out at 0.23 µM. On to `Cc1cccc(C[C@@H]2NC(=O)[C@H](CC(=O)O)NC(=O)[C@H](Cc3ccc(OCC(=O)O)cc3)NC(=O)[C@H]([C@@H](C)O)NC(=O)CSC[C@@H](C(N)=O)NC(=O)[C@H](CCC(=O)O)NC(=O)[C@H](C(C)C)NC(=O)[C@H](CC3CCCCC3)NC(=O)[C@H](CC(N)=O)NC(=O)[C@@H](CC(C)C)NC(=O)[C@H](C)N(C)C(=O)[C@H](Cc3ccc(OCC(=O)O)cc3)NC(=O)[C@H](Cc3ccc(-c4ccccc4)cc3)NC(=O)[C@H](Cc3ccc(OCC(=O)O)cc3)NC2=O)c1` [Compound 1679] ({CH2CO}-TY(Carboxymethyl)D[Phe(3-Me)]Y(Carboxymethyl)[Bip]Y(Carboxymethyl)[NMeA][dL]N[Cha]VEC-NH2; thioether N-14), for which the IC50 was determined as 0.23 µM. As for `Cc1cccc(C[C@@H]2NC(=O)[C@H](CC(=O)O)NC(=O)[C@H](Cc3ccc(OCC(=O)O)cc3)NC(=O)[C@H](Cc3ccc(OCC(=O)O)cc3)NC(=O)CSC[C@@H](C(N)=O)NC(=O)[C@H]([C@@H](C)O)NC(=O)[C@H](C(C)C)NC(=O)[C@H](CC3CCCCC3)NC(=O)[C@H](CCN)NC(=O)[C@@H](CC(C)C)NC(=O)[C@H](C)N(C)C(=O)[C@H](Cc3ccc(OCC(=O)O)cc3)NC(=O)[C@H](Cc3ccc(-c4ccccc4)cc3)NC(=O)[C@H](Cc3ccc(OCC(=O)O)cc3)NC2=O)c1` [Compound 1656] ({CH2CO}-Y(Carboxymethyl)Y(Carboxymethyl)D[Phe(3-Me)]Y(Carboxymethyl)[Bip]Y(Carboxymethyl)[NMeA][dL][Dab][Cha]VTC-NH2; thioether N-14), the IC50 came out at 0.03 µM. As to `Cc1cccc(C[C@@H]2NC(=O)[C@H](CC(=O)O)NC(=O)[C@H](Cc3ccncc3)NC(=O)[C@H](Cc3ccc(OCC(=O)O)cc3)NC(=O)CSC[C@@H](C(=O)N[C@@H](CC(=O)O)C(N)=O)NC(=O)[C@H](CO)NC(=O)[C@H](C(C)C)NC(=O)[C@H](CC(C)C)NC(=O)[C@H](CC(N)=O)NC(=O)[C@@H](CC(C)C)NC(=O)[C@H](C)N(C)C(=O)[C@H](C(C)C)NC(=O)[C@H](Cc3ccc(-c4ccccc4)cc3)NC(=O)[C@H](CC(C)C)NC2=O)c1` [Compound 1601] ({CH2CO}-Y(Carboxymethyl)[4Pal]D[Phe(3-Me)]L[Bip]V[NMeA][dL]NLVSCD-NH2; thioether N-14), the IC50 worked out at 0.02 µM.

Regarding `CC(C)C[C@@H]1NC(=O)[C@H](CCN)NC(=O)[C@@H](CC(C)C)NC(=O)[C@H](C)N(C)C(=O)[C@H](CCCNC(N)=O)NC(=O)[C@H](Cc2ccc(-c3ccccc3)cc2)NC(=O)[C@H](C(C)C)NC(=O)[C@H](Cc2c[nH]c3ccccc23)NC(=O)[C@H](CC(=O)O)NC(=O)[C@H](Cc2ccc(C#N)cc2)NC(=O)[C@H](CN)NC(=O)CSC[C@@H](C(=O)N[C@@H](C)C(N)=O)NC(=O)[C@H]([C@@H](C)O)NC(=O)[C@H](C(C)C)NC1=O` [Compound 1408] ({CH2CO}-[Dap][Phe(4-CN)]DWV[Bip][Cit][NMeA][dL][Dab]LVTCA-NH2; thioether N-14), the IC50 was determined as 0.1 µM. Regarding `Cc1cccc(C[C@@H]2NC(=O)[C@H](CC(=O)O)NC(=O)[C@H](Cc3ccc(OCC(=O)O)cc3)NC(=O)[C@H](Cc3ccncc3)NC(=O)CSC[C@@H](C(=O)N[C@@H](CCN)C(N)=O)NC(=O)[C@H](CCC(=O)O)NC(=O)[C@H](C(C)(C)O)NC(=O)[C@H](CC3CCCCC3)NC(=O)[C@H](CCN)NC(=O)[C@@H](CC(C)C)NC(=O)[C@H](C)N(C)C(=O)[C@H](Cc3ccc(OCC(=O)O)cc3)NC(=O)[C@H](Cc3ccc(-c4ccccc4)cc3)NC(=O)[C@H](Cc3ccc(OCC(=O)O)cc3)NC2=O)c1` [Compound 2188] ({CH2CO}-[4Pal]Y(Carboxymethyl)D[Phe(3-Me)]Y(Carboxymethyl)[Bip]Y(Carboxymethyl)[NMeA][dL][Dab][Cha][Val(3-OH)]EC[Dab]-NH2; thioether N-14), the IC50 came out at 0.02 µM.
